Here are results for five molecules from patent US5861404A, “2,9-disubstituted purin-6-ones” (Bayer Aktiengesellschaft, priority 1995, dated 1999).

Holding throughout (assay type): biochemical
Test [1] relates to Ca-calmodulin-stimulatable PDE I. As to the kind of experiment: Inhibition of the phosphodiesterases in vitro: PDE I. The conditions noted are these: PDE I from porcine aorta or porcine brain; nucleotide 10^-6 mol/l; 1 μM CaCl2, 0.1 μM calmodulin; pH 7.5, 30 minutes. How it is done:
(§1) The cGMP-stimulatable PDE II, the cGMP-inhibitable PDE III and the cAMP-specific PDE IV were isolated from either porcine or bovine myocardium. The Ca-calmodulin-stimulatable PDE I was isolated from the porcine aorta or porcine brain. The cGMP-specific PDE V was obtained from the porcine small intestine, porcine aorta and/or human blood platelets. Purification was carried out by anion exchange chromatography over MonoQ Phaacia essentially by the method of M. Hoey and Miles D. Houslay, Biochemical Pharmacology, Vol. 40, 193-202 (1990).
(§2) The enzyme activity is determined in a test batch of 100 μl in 20 mM Tris/HCl buffer of pH 7.5 which comprises 5 mM MgCl2, 0.1 mg/ml of bovine serum albumin and either 800 Bq of ^3 HcAMP or ^3 HcGMP. The final concentration of the corresponding nucleotides is 10^-6 mol/l. The reaction is started by addition of the enzyme and the amount of enzyme is chosen such that about 50% of the substrate is reacted during the incubation time of 30 minutes. To test the cGMP-stimulatable PDE II, ^3 HcAMP is used as the substrate and 10^-6 mol/l of non-labelled cGMP is added to the batch. To test the Ca-calmodulin-dependent PDE I, 1 μM CaCl2 and 0.1 μM calmodulin are also added to the reaction batch. The reaction is stopped by addition of 100 μl of acetonitrile which comprises 1 mnM cAMP and 1 mM AMP. 100 μl of the reaction batch are separated on the HPLC column and the cleavage products are determined quantitatively "online" with a flow-through scintillation counter. The substance concentration at which the rate of reaction is reduced by 50% is measured.

The next test concerns cGMP-stimulatable PDE II. Kind of test: Inhibition of the phosphodiesterases in vitro: PDE II. The conditions noted are these: PDE II from porcine or bovine myocardium; 3H-cAMP substrate 10^-6 mol/l with 10^-6 mol/l cGMP; pH 7.5, 30 minutes. The protocol:
as §1, §2

The next test has as its system cGMP-specific PDE V. Kind of test: Inhibition of the phosphodiesterases in vitro: PDE V. The conditions noted are these: PDE V from porcine small intestine, porcine aorta and/or human blood platelets; nucleotide 10^-6 mol/l; pH 7.5, 30 minutes. The protocol:
as §1, §2

The IC50 is the midpoint of a concentration-inhibition curve. Low readings indicate greater potency, high ones weaker potency. In the case of `CCCCCCC(C(C)O)n1cnc2c(=O)[nH]c(-c3ccc(Cl)cc3)nc21` (centres unmarked) [Example 5], the IC50 in test [1] turned out to be 10000 nM; with cGMP-stimulatable PDE II, 3000 nM; in the test on cGMP-specific PDE V, 50000 nM.
For `CC(O)C(CCCc1ccccc1)n1cnc2c(=O)[nH]c(C3CCCCC3)nc21` (centres unmarked) [Example 8, 9-(2-hydroxy-6phenyl-3-hexyl)-2-cyclohexyl-purin-6one], the IC50 worked out at 40000 nM in test [1] and 2000 nM in the test on cGMP-stimulatable PDE II.
Regarding `CC(CCCc1ccccc1)n1cnc2c(=O)[nH]c(C3CC3)nc21` (centres unmarked) [Example 14], the half-inhibitory concentration (IC50) in test [1] came to 4000 nM; with cGMP-stimulatable PDE II, 600 nM; in the test on cGMP-specific PDE V, 300 nM.
The matching figures for `CC(CCCc1ccccc1)n1cnc2c(=O)[nH]c(-c3ccc(-c4ccccc4)cc3)nc21` (centres unmarked) [Example 20]: 1000 nM, 400 nM and 1000 nM.
For `CC(CCCc1ccccc1)n1cnc2c(=O)[nH]c(-c3ccc4c(c3)OCO4)nc21` (centres unmarked) [Example 25], the IC50 worked out at 3000 nM in test [1], 100 nM in the test with cGMP-stimulatable PDE II and 10000 nM in the test with cGMP-specific PDE V.
